Target: ATP-binding cassette sub-family C member 8 (Homo sapiens, UniProt Q09428)
Experiment: Binding Activity of the Compounds of the Present Disclosure for SUR1 Receptor
Protocol: The plate was incubated at 4° C. for 1 h.f) The […]-96 GF/C and […]-96 GF/B plates were washed twice with Universal Harvester, each time with 50 mL of washing solution.g) The SUR1 receptor reaction system was transferred to a […]-96 GF/B plate with Universal Harvester, and 900 μL of washing solution was added to each well to wash the GF/B plate 4 times. The washed […]-96 GF/B plate was dried in an oven at 55° C. for 10 min.h) 40 μL of ULTIMA GOLD scintillation solution was added to each well, and the plate was read using Microbeta.

Sequence of ATP-binding cassette sub-family C member 8 (Q09428 whole entry): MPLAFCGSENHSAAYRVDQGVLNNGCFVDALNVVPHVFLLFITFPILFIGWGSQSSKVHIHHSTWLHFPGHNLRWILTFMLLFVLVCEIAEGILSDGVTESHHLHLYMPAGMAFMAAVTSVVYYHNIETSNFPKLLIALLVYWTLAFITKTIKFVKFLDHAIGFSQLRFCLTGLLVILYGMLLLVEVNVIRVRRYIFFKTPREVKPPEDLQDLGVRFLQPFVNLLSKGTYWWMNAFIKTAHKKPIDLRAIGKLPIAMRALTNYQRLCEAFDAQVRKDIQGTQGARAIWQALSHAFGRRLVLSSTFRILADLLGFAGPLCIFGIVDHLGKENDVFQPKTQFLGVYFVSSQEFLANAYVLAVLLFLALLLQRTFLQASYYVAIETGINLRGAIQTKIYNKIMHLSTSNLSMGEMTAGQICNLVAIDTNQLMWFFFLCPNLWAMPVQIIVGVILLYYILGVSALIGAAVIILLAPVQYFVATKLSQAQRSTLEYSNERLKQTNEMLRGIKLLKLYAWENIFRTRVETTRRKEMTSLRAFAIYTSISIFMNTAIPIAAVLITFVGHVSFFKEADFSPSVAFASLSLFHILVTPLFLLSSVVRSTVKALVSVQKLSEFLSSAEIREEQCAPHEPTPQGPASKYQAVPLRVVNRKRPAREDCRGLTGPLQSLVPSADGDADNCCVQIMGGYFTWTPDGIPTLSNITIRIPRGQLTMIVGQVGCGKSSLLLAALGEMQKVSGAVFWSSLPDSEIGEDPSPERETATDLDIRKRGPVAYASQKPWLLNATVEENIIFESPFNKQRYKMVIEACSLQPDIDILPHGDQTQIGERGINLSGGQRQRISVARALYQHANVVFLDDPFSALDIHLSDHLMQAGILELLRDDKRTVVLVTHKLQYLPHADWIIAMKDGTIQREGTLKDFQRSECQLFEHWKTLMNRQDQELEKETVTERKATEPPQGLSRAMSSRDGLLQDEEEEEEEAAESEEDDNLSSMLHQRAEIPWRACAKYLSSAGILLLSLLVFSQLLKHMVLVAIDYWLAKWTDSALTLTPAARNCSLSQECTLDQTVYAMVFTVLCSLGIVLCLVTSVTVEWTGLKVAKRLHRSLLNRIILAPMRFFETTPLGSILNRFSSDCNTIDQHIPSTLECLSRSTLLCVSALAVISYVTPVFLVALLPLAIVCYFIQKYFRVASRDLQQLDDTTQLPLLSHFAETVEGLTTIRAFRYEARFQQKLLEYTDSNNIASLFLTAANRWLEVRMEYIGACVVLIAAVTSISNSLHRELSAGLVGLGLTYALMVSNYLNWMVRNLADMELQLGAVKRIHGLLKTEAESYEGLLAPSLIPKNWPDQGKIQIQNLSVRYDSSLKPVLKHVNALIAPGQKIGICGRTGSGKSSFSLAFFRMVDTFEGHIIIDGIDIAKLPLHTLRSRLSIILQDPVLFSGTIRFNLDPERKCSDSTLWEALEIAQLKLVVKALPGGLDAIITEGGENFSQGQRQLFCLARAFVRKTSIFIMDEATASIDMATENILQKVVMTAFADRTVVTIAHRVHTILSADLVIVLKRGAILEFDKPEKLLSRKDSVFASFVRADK

- IC50: 8 nM
SMILES: COc1ccc(Cl)cc1C(=O)NCCc1ccc(S(=O)(=O)NC(=O)N[C@H]2CC[C@H](O)CC2)cc1 [US20230348371, Compound 4]

— BindingDB's records for patent US20230348371 (Shanghai Senhui Medicine, 2023)
